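Compound exposure: 48 hours, 5 concentrations, 96-well plates. GI50 marks 50% less growth.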 The source made the active and inactive calls. No stated cut-off is given here; in the data, active = GI50 up to about 1.1 µM and inactive = higher.
Key:
Assay in all cases: inhibition of tumour cell growth, NCI panel, 48 h
[1] = test system: DLD-1
[2] = test system: DMS-114
[3] = test system: DMS-273
[4] = test system: KM-20L2
[5] = test system: LXFL 529
[6] = test system: RXF 631
[7] = test system: SNB-78
[8] = test system: XF498
[9] = test system: HOP-18

Row | Compound | GI50 [1] | GI50 [2] | GI50 [3] | GI50 [4] | GI50 [5] | GI50 [6] | GI50 [7] | GI50 [8] | GI50 [9]
1 | C/C(CC(=O)Nc1ccc(Cl)cc1)=N\NC(N)=S | 18.3 µM (inactive) | 39.1 µM (inactive) | 8.09 µM (inactive) | 13.9 µM (inactive) | 5.47 µM (inactive) | > 100 µM (inactive) | > 100 µM (inactive) | > 100 µM (inactive) | 
2 | NCCn1cnc2nc(NC(=O)c3ccccc3)[nH]c(=O)c21 | > 100 µM (inactive) | > 100 µM (inactive) |  | > 100 µM (inactive) | > 100 µM (inactive) | > 100 µM (inactive) | > 100 µM (inactive) |  | > 100 µM (inactive)
3 | CC1(c2cccc3ccccc23)OC(=O)c2ccccc21 (stereo not given) | 22.5 µM (inactive) | 13.4 µM (inactive) | 10.8 µM (inactive) | 17.2 µM (inactive) | 26.5 µM (inactive) | 20.2 µM (inactive) | 41.7 µM (inactive) | 18.2 µM (inactive) | 
4 | CC[C@@]1(O)C(=O)OCc2c1cc1n(c2=O)Cc2cc3cc4c(cc3nc2-1)OCO4 | 0.0559 µM (active) | < 0.001 µM (active) | < 0.001 µM (active) | 0.0121 µM (active) | 0.0107 µM (active) | 0.0143 µM (active) | 0.376 µM (active) | 0.0238 µM (active) | 0.0429 µM (active)
5 | O=c1c2c(nc3n1CCC3)sc1c(O)c(Br)ccc12 | 27.7 µM (inactive) | 16.3 µM (inactive) | 14.9 µM (inactive) | 13.5 µM (inactive) |  |  | 33.3 µM (inactive) | 21.5 µM (inactive) | > 100 µM (inactive)
6 | COc1ccc2c(c1OCC(=O)O)C(=O)C(CCC(=O)O)CC2 (stereo not given) | > 100 µM (inactive) | > 100 µM (inactive) | > 100 µM (inactive) | > 100 µM (inactive) | > 100 µM (inactive) | > 100 µM (inactive) | > 100 µM (inactive) | 71.1 µM (inactive) | > 100 µM (inactive)
7 | Cc1nc2c(n1-c1ccc(Br)cc1)C(=O)c1ccccc1C2=O | 7.59 µM (inactive) | 26 µM (inactive) | 4.49 µM (inactive) |  |  | 2.06 µM (inactive) | 14.6 µM (inactive) |  | 
8 | CC(=O)O[C@]1(C)CCC2C(C)C(=O)OC2C2C(C)[C@@H](O)CC21 (stereo not given in full) | 41.4 µM (inactive) |  | 22.4 µM (inactive) | 29.3 µM (inactive) | 21.7 µM (inactive) |  | 74 µM (inactive) |  | 40.6 µM (inactive)
9 | O=C(O)CCC1(Br)CCCCC(Br)C1=O (stereo not given) |  | > 100 µM (inactive) | > 100 µM (inactive) | > 100 µM (inactive) | > 100 µM (inactive) |  | > 100 µM (inactive) | > 100 µM (inactive) | 32.8 µM (inactive)
10 | CCC(O)C1Cc2c(C)cc3c(c2O1)C(=O)c1ccccc1C3=O (stereo not given) | 42 µM (inactive) | 25.4 µM (inactive) | 28.7 µM (inactive) | 35.2 µM (inactive) | 28.8 µM (inactive) |  | 33.2 µM (inactive) | 14.3 µM (inactive) | 17.2 µM (inactive)
11 | CC(=O)Nc1ccc(C(=O)N2N=C(C)/C(=C/c3ccccc3O)C2=O)cc1 | > 100 µM (inactive) | > 100 µM (inactive) | > 100 µM (inactive) |  |  |  | > 100 µM (inactive) | > 100 µM (inactive) | 49.3 µM (inactive)
12 | CCCCCCCCCCCCCc1nnn[nH]1 | 17.1 µM (inactive) | 18.5 µM (inactive) |  | 20.2 µM (inactive) | 17.3 µM (inactive) | 15.4 µM (inactive) | 21.4 µM (inactive) |  | 15 µM (inactive)
13 | Clc1ccc2c(NCCCCCCNc3ccnc4cc(Cl)ccc34)ccnc2c1 | 3.03 µM (inactive) | 1.8 µM (inactive) | 2.98 µM (inactive) | 1.99 µM (inactive) | 2.33 µM (inactive) | 2.44 µM (inactive) | 1.86 µM (inactive) | 1.57 µM (inactive) | 
14 | C[C@]12Cc3conc3C(O)=C1CC[C@@H]1C2CC[C@@]2(C)C1CC[C@@H]2O (stereo not given in full) |  |  | 5.22 µM (inactive) | 29.5 µM (inactive) | 15 µM (inactive) |  | 22.2 µM (inactive) | 15 µM (inactive) | 41 µM (inactive)
15 | COc1ccccc1/C=C(\C#N)C(=O)c1ccccc1 |  | > 100 µM (inactive) | > 100 µM (inactive) | > 100 µM (inactive) |  |  | > 100 µM (inactive) | > 100 µM (inactive) | 
16 | COC(=O)NC(=O)c1cn(C2CCCCC2)c(=O)[nH]c1=O | > 100 µM (inactive) | > 100 µM (inactive) | > 100 µM (inactive) | > 100 µM (inactive) | > 100 µM (inactive) |  | > 100 µM (inactive) |  | > 100 µM (inactive)
17 | CCOC(=O)c1oc2c(OC)cc(Cl)c3c2c1CCC3 | > 100 µM (inactive) | > 100 µM (inactive) | 92 µM (inactive) |  | > 100 µM (inactive) |  | > 100 µM (inactive) | 19.5 µM (inactive) | 
18 | N/N=C(/Cc1nc2ccc(C(=O)c3ccccc3)cc2nc1O)C(=O)Nc1ccc([N+](=O)[O-])cc1[N+](=O)[O-] |  | > 10 µM (inactive) | > 10 µM (inactive) | > 100 µM (inactive) | > 10 µM (inactive) |  | > 10 µM (inactive) | 8.07 µM (inactive) | 35.5 µM (inactive)
19 | Cc1ccc(S(=O)(=O)c2ccc(N)cc2)cc1 | > 100 µM (inactive) |  | > 100 µM (inactive) | > 100 µM (inactive) | > 100 µM (inactive) | > 100 µM (inactive) | > 100 µM (inactive) | > 100 µM (inactive) | 
20 | CCC1(O)C(=O)OCc2c1cc1n(c2=O)Cc2cc3cc4c(cc3nc2-1)OCO4 (stereo not given) | 0.0759 µM (active) | < 0.01 µM (active) | < 0.01 µM (active) | 0.0137 µM (active) | 0.0617 µM (active) | 0.0176 µM (active) | 3.37 µM (inactive) | < 0.0185 µM (active) | < 0.01 µM (active)
21 | C/C(=N\NC(N)=O)c1sc(-c2nc(C)c(/C(C)=N/NC(N)=O)s2)nc1C | 46.6 µM (inactive) |  | 21.1 µM (inactive) | 49.3 µM (inactive) | > 100 µM (inactive) |  | > 100 µM (inactive) | > 100 µM (inactive) | > 100 µM (inactive)
22 | O=[N+]([O-])c1cc(I)cc(/C=N/NS(=O)(=O)c2ccc(Cl)cc2)c1O | 26 µM (inactive) |  | 19.8 µM (inactive) | 36 µM (inactive) | 19.4 µM (inactive) | 22.7 µM (inactive) | 27.5 µM (inactive) |  | 19.1 µM (inactive)
23 | CC(=O)Oc1ccc2c(=O)c(C(C)=O)coc2c1 |  |  | > 100 µM (inactive) | > 100 µM (inactive) | > 100 µM (inactive) |  | 80 µM (inactive) | 83.9 µM (inactive) | 
24 | CCCCCCCCC(=O)NCCN(CCN)C(=O)CCCCCCCC | 5.37 µM (inactive) | 4.79 µM (inactive) | 2.87 µM (inactive) | 5.04 µM (inactive) | 3.36 µM (inactive) | 4.08 µM (inactive) | 10.4 µM (inactive) | 2.42 µM (inactive) | 16.7 µM (inactive)
25 | c1nc2cscc2c2cscc12 |  | > 100 µM (inactive) | > 100 µM (inactive) |  | > 100 µM (inactive) |  | > 100 µM (inactive) | > 100 µM (inactive) | 
26 | CN1C(=O)CC2(C)c3cc(O)ccc3N(C)C12 (stereo not given) | > 89.3 µM (inactive) | 38.9 µM (inactive) | > 100 µM (inactive) | > 100 µM (inactive) | 27.8 µM (inactive) | > 100 µM (inactive) | > 67.3 µM (inactive) | 17.3 µM (inactive) | > 100 µM (inactive)
27 | CC(C)(C)OC(=O)NCC(=O)OCc1ccccc1 | > 100 µM (inactive) | > 100 µM (inactive) | > 100 µM (inactive) |  | > 100 µM (inactive) |  | > 100 µM (inactive) | > 100 µM (inactive) | 
